Source: PMC3163471 (MedChemComm, 2011)

Test system: breast cancer cell lines
Test: Antiproliferative activity, cell line not given
Format: cell-based, human
Conditions: text on structure-activity relationship, Tables 1 and 2

H-Arg-Pro-[3-amino-3(1-napthyl)-propionic acid]-Tyr-OH [Compound 13]
Antiproliferative activity in words, compared with compound 5 or the parent: activity was lost

H-Arg-[3-amino-3(1-napthyl)-propionic acid]-Asp-OH [Compound 7]
Antiproliferative activity in words, compared with compound 5 or the parent: loss of activity

H-Arg-[3-amino-3(1-napthyl)-propionic acid]-Tyr-OH [Compound 6]
Antiproliferative activity in words, compared with compound 5 or the parent: loss of activity

H-Arg-[3-amino-3(biphenyl)-propionic acid]-Phe-OH [Compound 10]
Antiproliferative activity in words, compared with compound 5 or the parent: retained the activity and specificity

H-Lys-[3-amino-3(biphenyl)-propionic acid]-Phe-OH [Compound 11]
Antiproliferative activity in words, compared with compound 5 or the parent: loss of activity
